Experimental data taken from paper PMC5560734, “Diflunisal inhibits prestin by chloride-dependent mechanism” (PLoS ONE, 2017).

Biological target: T1, prestin (SLC26A5) (Mus musculus, UniProt Q99NH7)
T1 construct: endogenous prestin in isolated C57BL/6 mouse outer hair cells
T1 sequence (Q99NH7 1-744): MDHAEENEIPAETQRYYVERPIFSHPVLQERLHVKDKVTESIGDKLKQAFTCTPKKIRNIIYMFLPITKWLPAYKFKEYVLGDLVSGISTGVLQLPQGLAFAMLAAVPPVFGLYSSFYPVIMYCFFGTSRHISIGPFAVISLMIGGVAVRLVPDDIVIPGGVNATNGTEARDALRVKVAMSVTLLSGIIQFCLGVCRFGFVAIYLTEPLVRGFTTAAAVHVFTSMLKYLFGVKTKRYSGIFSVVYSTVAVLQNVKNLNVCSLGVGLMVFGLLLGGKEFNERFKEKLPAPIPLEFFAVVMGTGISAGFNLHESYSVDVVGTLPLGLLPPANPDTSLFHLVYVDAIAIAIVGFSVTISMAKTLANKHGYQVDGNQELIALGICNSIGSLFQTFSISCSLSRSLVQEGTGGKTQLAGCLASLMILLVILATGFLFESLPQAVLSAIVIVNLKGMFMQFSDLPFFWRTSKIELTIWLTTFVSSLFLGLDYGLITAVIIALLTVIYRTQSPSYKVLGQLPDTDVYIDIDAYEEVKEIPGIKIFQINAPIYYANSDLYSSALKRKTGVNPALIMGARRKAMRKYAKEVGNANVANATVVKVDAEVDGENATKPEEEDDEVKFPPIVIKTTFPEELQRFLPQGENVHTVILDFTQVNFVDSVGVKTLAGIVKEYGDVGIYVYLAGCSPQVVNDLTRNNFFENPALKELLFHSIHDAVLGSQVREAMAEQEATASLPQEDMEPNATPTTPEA
Assay: whole-cell patch clamp of outer hair cells, non-linear capacitance / charge transfer (Qmax) at […] intracellular chloride
Assay type: cell-based

IC50: 98 µM
Structure (SMILES): O=C(O)c1cc(-c2ccc(F)cc2F)ccc1O [DFL, diflunisal]
